Organism: Rattus norvegicus
Test: Open TG-GATES - Regimen: Single
Format: toxicity, organism-based, Sprague-Dawley
Design: regimen Single, gender Male, age 6 weeks
Settings: in vivo, po, 0 mg/kg, route gavage, dose level Control; for APTT / Bas / Eos / Fbg / Hb / Ht / Lym / MCH / MCHC / MCV / Mono / Neu / PT / Plat / RBC / Ret / WBC: tissue Blood; for KIDNEY_L / KIDNEY_R / KIDNEY_TOTAL: tissue Kidney; for LIVER: tissue Liver; for A/G / ALP / ALT / AST / BUN / CRE / Ca / Cl / DBIL / GLC / IP / K / LDH / Na / PL / RALB / TBIL / TC / TG / TP / gamma-GTP: tissue Plasma

`O=C(O)COc1nn(Cc2ccccc2)c2ccccc12` [BENDAZAC] was tested, and the TERMINAL_BW (3 h) was 211 g, the APTT (3 h) was 17.2 s and the Bas (3 h) was 0%. For the same compound, the Eos (3 h) was 0.8%, the Fbg (3 h) was 208.8 mg/dL and the Hb (3 h) was 13.6 g/dL. It also gave a Ht (3 h) of 40.7%, a Lym (3 h) of 77.2% and an MCH (3 h) of 21.7 pg. It also gave an MCHC (3 h) of 33.3%, an MCV (3 h) of 65.1 fL and a Mono (3 h) of 10.4%. For the same compound, the Neu (3 h) was 12%, the PT (3 h) was 11.2 s and the Plat (3 h) was 119 x10_4/uL. It also gave an RBC (3 h) of 625 x10_4/ul, a Ret (3 h) of 8.9% and a WBC (3 h) of 108.6 x10_2/uL. The KIDNEY_L (3 h) was 0.9 g, the KIDNEY_R (3 h) was 1 g and the KIDNEY_TOTAL (3 h) was 1.9 g. It also gave an LIVER (3 h) of 10 g, an A/G (3 h) of 2.2 and an ALP (3 h) of 955 IU/L. It also gave an ALT (3 h) of 37.2 IU/L, an AST (3 h) of 65.8 IU/L and a BUN (3 h) of 12.4 mg/dL. For the same compound, the CRE (3 h) was 0.5 mg/dL, the Ca (3 h) was 10.9 mg/dL and the Cl (3 h) was 103.8 meq/L. For the same compound, the DBIL (3 h) was 0.008 mg/dL, the GLC (3 h) was 199.4 mg/dL and the IP (3 h) was 8.2 mg/dL. It also gave a K (3 h) of 4.5 meq/L, an LDH (3 h) of 89.4 IU/L and a Na (3 h) of 139.8 meq/L. For the same compound, the PL (3 h) was 145.4 mg/dL, the RALB (3 h) was 3.7 g/dL and the TBIL (3 h) was 0.3 mg/dL. It also gave a TC (3 h) of 81 mg/dL, a TG (3 h) of 67 mg/dL and a TP (3 h) of 5.4 g/dL. For the same compound, the gamma-GTP (3 h) was 1 IU/L, the TERMINAL_BW (6 h) was 209.6 g and the APTT (6 h) was 17.5 s. It also gave a Bas (6 h) of 0%, an Eos (6 h) of 0.8% and a Fbg (6 h) of 200.2 mg/dL. The Hb (6 h) was 13.9 g/dL, the Ht (6 h) was 41.5% and the Lym (6 h) was 77.2%. The MCH (6 h) was 21.6 pg, the MCHC (6 h) was 33.4% and the MCV (6 h) was 64.7 fL. It also gave a Mono (6 h) of 8.4%, a Neu (6 h) of 13.4% and a PT (6 h) of 11.7 s. The Plat (6 h) was 123 x10_4/uL, the RBC (6 h) was 642.4 x10_4/ul and the Ret (6 h) was 10%. It also gave a WBC (6 h) of 96.6 x10_2/uL, a KIDNEY_L (6 h) of 1 g and a KIDNEY_R (6 h) of 1 g. For the same compound, the KIDNEY_TOTAL (6 h) was 2 g, the LIVER (6 h) was 9.4 g and the A/G (6 h) was 2.2. It also gave an ALP (6 h) of 801.4 IU/L, an ALT (6 h) of 33.2 IU/L and an AST (6 h) of 59.8 IU/L. The BUN (6 h) was 11.6 mg/dL, the CRE (6 h) was 0.5 mg/dL and the Ca (6 h) was 10.7 mg/dL. The Cl (6 h) was 105.6 meq/L, the DBIL (6 h) was 0.054 mg/dL and the GLC (6 h) was 186.8 mg/dL. The IP (6 h) was 9.6 mg/dL, the K (6 h) was 4.8 meq/L and the LDH (6 h) was 75.2 IU/L. For the same compound, the Na (6 h) was 140.8 meq/L, the PL (6 h) was 135.6 mg/dL and the RALB (6 h) was 3.6 g/dL. The TBIL (6 h) was 0.5 mg/dL, the TC (6 h) was 72.6 mg/dL and the TG (6 h) was 75.8 mg/dL. It also gave a TP (6 h) of 5.2 g/dL, a gamma-GTP (6 h) of 2 IU/L and a TERMINAL_BW (9 h) of 211.9 g. It also gave an APTT (9 h) of 16.6 s, a Bas (9 h) of 0% and an Eos (9 h) of 1.2%. The Fbg (9 h) was 206.4 mg/dL, the Hb (9 h) was 13.5 g/dL and the Ht (9 h) was 40.3%. It also gave a Lym (9 h) of 76.8%, an MCH (9 h) of 22 pg and an MCHC (9 h) of 33.5%. It also gave an MCV (9 h) of 65.8 fL, a Mono (9 h) of 9.6% and a Neu (9 h) of 12.8%. It also gave a PT (9 h) of 11.8 s, a Plat (9 h) of 107.3 x10_4/uL and an RBC (9 h) of 613.4 x10_4/ul. For the same compound, the Ret (9 h) was 10.7%, the WBC (9 h) was 98.1 x10_2/uL and the KIDNEY_L (9 h) was 1 g. It also gave a KIDNEY_R (9 h) of 1 g, a KIDNEY_TOTAL (9 h) of 2 g and an LIVER (9 h) of 9 g. It also gave an A/G (9 h) of 2.1, an ALP (9 h) of 700.2 IU/L and an ALT (9 h) of 30 IU/L. For the same compound, the AST (9 h) was 64.4 IU/L, the BUN (9 h) was 10.8 mg/dL and the CRE (9 h) was 0.6 mg/dL. The Ca (9 h) was 10.6 mg/dL, the Cl (9 h) was 106 meq/L and the DBIL (9 h) was 0.056 mg/dL. For the same compound, the GLC (9 h) was 197.2 mg/dL, the IP (9 h) was 9.9 mg/dL and the K (9 h) was 4.6 meq/L. The LDH (9 h) was 75 IU/L, the Na (9 h) was 143 meq/L and the PL (9 h) was 134.4 mg/dL. For the same compound, the RALB (9 h) was 3.7 g/dL, the TBIL (9 h) was 0.4 mg/dL and the TC (9 h) was 73.4 mg/dL. The TG (9 h) was 44.2 mg/dL, the TP (9 h) was 5.5 g/dL and the gamma-GTP (9 h) was 1.8 IU/L. The TERMINAL_BW (24 h) was 229.7 g, the APTT (24 h) was 17 s and the Bas (24 h) was 0%. The Eos (24 h) was 1%, the Fbg (24 h) was 210.8 mg/dL and the Hb (24 h) was 13.5 g/dL. For the same compound, the Ht (24 h) was 39.7%, the Lym (24 h) was 77.2% and the MCH (24 h) was 22.2 pg. The MCHC (24 h) was 34%, the MCV (24 h) was 65.2 fL and the Mono (24 h) was 9.6%. It also gave a Neu (24 h) of 12.4%, a PT (24 h) of 12 s and a Plat (24 h) of 125.1 x10_4/uL. It also gave an RBC (24 h) of 609.6 x10_4/ul, a Ret (24 h) of 9.8% and a WBC (24 h) of 103.2 x10_2/uL. For the same compound, the KIDNEY_L (24 h) was 1 g, the KIDNEY_R (24 h) was 1 g and the KIDNEY_TOTAL (24 h) was 2 g. It also gave an LIVER (24 h) of 10.7 g, an A/G (24 h) of 2 and an ALP (24 h) of 978 IU/L. The ALT (24 h) was 39.8 IU/L, the AST (24 h) was 67.2 IU/L and the BUN (24 h) was 17.8 mg/dL. The CRE (24 h) was 0.6 mg/dL, the Ca (24 h) was 11 mg/dL and the Cl (24 h) was 104.6 meq/L. The DBIL (24 h) was 0.006 mg/dL, the GLC (24 h) was 194.2 mg/dL and the IP (24 h) was 7.9 mg/dL. The K (24 h) was 4.8 meq/L, the LDH (24 h) was 80.6 IU/L and the Na (24 h) was 140.4 meq/L. It also gave a PL (24 h) of 144.6 mg/dL, an RALB (24 h) of 3.7 g/dL and a TBIL (24 h) of 0.3 mg/dL. The TC (24 h) was 77.2 mg/dL, the TG (24 h) was 102 mg/dL and the TP (24 h) was 5.6 g/dL. It also gave a gamma-GTP (24 h) of 1.2 IU/L.
